Source: ChEMBL document CHEMBL1140181, “Tyrianthinic acids from Ipomoea tyrianthina and their antimycobacterial activity, cytotoxicity, and effects on the central nervous system” (2008)
Values after ≈ are worked out from the molar mass of the structure shown. Active and inactive are the calls of the source. The calls are words filed in the database; no cut-off is given here.

Tests used:
[1] = tested on: Mus musculus; assay: Anticonvulsant activity in mouse assessed as protection of pentylenetetrazole-induced seizure at 40 mg/kg, ip; format: functional; conditions: route intraperitoneal
[2] = Cytotoxicity against human UISO-SQC-1 cells; format: functional; conditions: UISO-SQC1, read-out: ED50 (the source's name)
[3] = tested on: OVCAR-5; assay: Cytotoxicity against human OVCAR5 cells; format: functional; conditions: read-out: ED50 (the source's name)
[4] = tested on: Mus musculus; assay: Anticonvulsant activity in mouse assessed as effect on pentobarbital-induced increase in hypnosis latency at 10 mg/kg, ip; format: functional, organism-based; parameters: dose 10 mg/kg
[5] = tested on: Mycobacterium tuberculosis; assay: Antimicrobial activity against Mycobacterium tuberculosis H37Rv ATTC 27294 by alamar blue assay; format: functional
[6] = tested on: HCT-15; assay: Cytotoxicity against human HCT15 cells; format: functional; conditions: read-out: ED50 (the source's name)
[7] = tested on: KB; assay: Cytotoxicity against human KB cells; format: functional; conditions: read-out: ED50 (the source's name)
[8] = organism: Mus musculus; assay: Increase in GABA level in mouse brain at 4 ug/mL after 90 seconds; format: functional, organism-based

SMILES	Activity [1]	EC50 [2]	EC50 [3]	Activity [4]	MIC [5]	EC50 [6]	EC50 [7]	Activity [8]
C/C=C(\C)C(=O)O[C@H]1[C@H](O)[C@@H](O)[C@H](O[C@@H]2[C@@H](O)[C@@H](OC(=O)C(C)CC)[C@H](O[C@H]3[C@H](O[C@H]4[C@H](O[C@H](CCCCC)CCCCCCCCCC(=O)O)O[C@H](C)[C@@H](O)[C@@H]4O)O[C@H](CO)[C@@H](O)[C@@H]3O)O[C@H]2C)O[C@@H]1C (stereo not given in full) [THYRIANTHINIC ACID II]	70%	> 5 µg/mL	> 5 µg/mL	Active	25 µg/mL (≈ 24.1 µM)	> 5 µg/mL	2.8 µg/mL (≈ 2.69 µM)	
CCCCC[C@H](CCCCCCCCCC(=O)O)O[C@@H]1O[C@H](C)[C@@H](O)[C@H](O)[C@H]1O[C@@H]1O[C@H](CO)[C@@H](O)[C@H](O)[C@H]1O[C@@H]1O[C@@H](C)[C@H](O[C@@H]2O[C@H](C)[C@@H](OC(=O)C(C)C(C)O)[C@H](O)[C@H]2O)[C@@H](O)[C@H]1OC(=O)C(C)CC (stereo not given in full) [THYRIANTHINIC ACID I]	70%	> 5 µg/mL	> 5 µg/mL	Active	25 µg/mL (≈ 23.6 µM)	> 5 µg/mL	2.6 µg/mL (≈ 2.46 µM)	
C/C=C(\C)C(=O)O[C@H]1[C@@H]2O[C@H]3[C@H](O[C@H]4[C@H](OC(CCCCC)CCCCCCCCCC(=O)O[C@@H]1[C@H](O[C@H]1O[C@H](C)[C@H](O)[C@@H](O)[C@H]1O)[C@@H](C)O2)O[C@H](C)[C@H](O)[C@H]4O)O[C@H](CO)[C@H](O)[C@H]3O (stereo not given in full) [TYRIANTHIN 8]	70%	> 5 µg/mL	> 5 µg/mL	Active	25 µg/mL (≈ 26.7 µM)	> 5 µg/mL	2.2 µg/mL (≈ 2.35 µM)	Active
CCCCCC1CCCCCCCCCC(=O)O[C@H]2[C@@H](OC(=O)CC)[C@H](O[C@H]3[C@H](O[C@H]4[C@H](O1)O[C@H](C)[C@H](O)[C@H]4O)O[C@H](CO)[C@H](O)[C@H]3O)O[C@H](C)[C@H]2O[C@H]1O[C@H](C)[C@H](O)[C@@H](O)[C@H]1O (stereo not given in full) [TYRIANTHIN 9]	70%	> 5 µg/mL	> 5 µg/mL	Active	25 µg/mL (≈ 27.4 µM)	> 5 µg/mL	2.5 µg/mL (≈ 2.74 µM)	Active
